Tests used:
[1] = biological target: T1, MAGL (recombinant wild-type) (Homo sapiens, UniProt Q99685); experiment: 4-NPA assay: MAGL inhibition followed by hydrolysis of 4-nitrophenylacetate, absorbance at 405 nm; type: biochemical; settings: measured in 4-NPA assay (footnote [b]); 1 nM MAGL, 300 μM 4-nitrophenylacetate
T1 sequence (Q99685 1-303): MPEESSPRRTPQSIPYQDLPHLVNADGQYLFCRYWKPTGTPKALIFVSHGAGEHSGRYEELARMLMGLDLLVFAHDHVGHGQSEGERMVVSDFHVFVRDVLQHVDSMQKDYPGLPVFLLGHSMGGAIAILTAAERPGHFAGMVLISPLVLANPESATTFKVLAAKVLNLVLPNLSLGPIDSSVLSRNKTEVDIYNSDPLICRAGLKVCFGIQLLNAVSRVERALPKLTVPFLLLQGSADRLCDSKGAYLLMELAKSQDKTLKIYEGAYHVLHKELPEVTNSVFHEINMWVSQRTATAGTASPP
Method: Compounds were profiled for MAGL inhibitory activity by measuring the enzymatic activity of MAGL by following the hydrolysis of 4-nitrophenylacetate resulting in 4-nitrophenol, which absorbs at 405-412 nm (G. G. Muccioli, G. Labar, D. M. Lambert, Chem. Bio. Chem. 2008, 9, 2704-2710). This assay is hereinafter abbreviated “4-NPA assay”.
The 4-NPA assay was carried out in 384 well assay plates (black with clear bottom, non-binding surface treated, Corning Ref. 3655) in a total volume of 40 μL. Compound dilutions were made in 100% DMSO (VWR Chemicals 23500.297) in a polypropylene plate in 3-fold dilution steps to give a final concentration range in the assay from 25 μM to 1.7 nM. 1 μL compound dilutions (100% DMSO) were added to 19 μL MAGL (recombinant wild-type) in assay buffer (50 mM TRIS (GIBCO, 15567-027), 1 mM EDTA (Fluka, 03690-100 mL)). The plate was shaked for 1 min at 2000 rpm (Variomag Teleshake) and then incubated for 15 min at RT. To start the reaction, 20 μL 4-Nitrophenlyacetate (Sigma N-8130) in assay buffer with 6% EtOH was added. The final concentrations in the assay were 1 nM MAGL and 300 μM 4-Nitrophenylacetate. After shaking (1 min, 2000 rpm) and 5 min incubation at RT, the absorbance at 405 nm was measured for a fist time (Molecular Devices, SpectraMax Paradigm). A second measurement was then done after incubation for 80 min at RT. From the two measurements, the slope was calculated by subtracting the first from the second measurement.

MAGL = biological target: T2, MAGL (Homo sapiens, UniProt Q99685); experiment: 2-AG assay: MAGL inhibition followed by hydrolysis of 2-arachidonoylglycerol to arachidonic acid, mass spectrometry; type: biochemical; settings: measured in 2-AG assay (footnote [a]); substrate 2-arachidonoylglycerol 8 μM, 30 min at RT
T2 sequence (Q99685 1-303): T1 sequence (Q99685 1-303)
How it was run: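 Test compounds (final […], 3-fold steps) preincubated 15 min at RT with […] in 50 mM Tris, 1 mM EDTA, 0.01% Tween; 8 μM 2-arachidonoylglycerol then added for 30 min at RT. Acetonitrile quench; arachidonic acid measured by RapidFire SPE–MS/MS, activity from arachidonic acid/d8-arachidonic acid ratio.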

Row | SMILES | IC50 [1] [nM] | IC50 (MAGL) [nM]
1 | CN(C(=O)c1ccc(C(F)(F)F)cc1)C1CCN(C(=O)N2CC[C@@H]3OCC(=O)N[C@@H]3C2)CC1 [Example 85, N-[1-[(4aR,8aS)-3-oxo-4,4a,5,7,8,8a-hexahydropyrido[4,3-b][1,4]oxazine-6-carbonyl]piperidin-4-yl]-N-methyl-4-(trifluoromethyl)benzamide] | 1990 | 
2 | O=C1CO[C@H]2CCN(C(=O)N3CCC(C(=O)N(CCO)Cc4ccccc4)CC3)C[C@H]2N1 [Example 63, N-Benzyl-N-(2-hydroxyethyl)-1-((4aR,8aS)-3-oxooctahydro-2H-pyrido[4,3-b][1,4]oxazine-6-carbonyl)piperidine-4-carboxamide] | 4400 | 
3 | CN(C(=O)Cc1cccc(C(F)(F)F)c1)C1CCN(C(=O)N2CC[C@@H]3OCC(=O)N[C@@H]3C2)CC1 [Example 86, N-[1-[(4aR,8aS)-3-oxo-4,4a,5,7,8,8a-hexahydropyrido[4,3-b][1,4]oxazine-6-carbonyl]piperidin-4-yl]-N-methyl-2-[3-(trifluoromethyl)phenyl]acetamide] | 519 | 
4 | O=C1CO[C@H]2CCN(C(=O)N3CC(O)(C#Cc4ccccc4Cl)C3)C[C@H]2N1 [Example 190, (4aR,8aS)-6-[3-[2-(2-Chlorophenyl)ethynyl]-3-hydroxyazetidine-1-carbonyl]-4,4a,5,7,8,8a-hexahydropyrido[4,3-b][1,4]oxazin-3-one] |  | 535
5 | O=C1CO[C@H]2CCN(C(=O)N3CCC(C(=O)NCc4ccccc4)CC3)C[C@H]2N1 [Example 65, N-Benzyl-1-((4aR,8aS)-3-oxooctahydro-2H-pyrido[4,3-b][1,4]oxazine-6-carbonyl)piperidine-4-carboxamide] | 2900 | 
6 | O=C1CO[C@H]2CCN(C(=O)N3CC(CNC(c4ccc(C(F)(F)F)cc4)C(F)(F)F)C3)C[C@H]2N1 (stereo partly drawn) [Example 41, (4aR,8aS)-6-[3-[[[2,2,2-Trifluoro-1-[4-(trifluoromethyl)phenyl]ethyl]amino]methyl]azetidine-1-carbonyl]hexahydro-2H-pyrido[4,3-b][1,4]oxazin-3(4H)-one] |  | 24
7 | CN(C(=O)Cc1cc(C(F)(F)F)ccc1Cl)C1CCN(C(=O)N2CC[C@@H]3OCC(=O)N[C@@H]3C2)CC1 [Example 84, N-[1-[(4aR,8aS)-3-oxo-4,4a,5,7,8,8a-hexahydropyrido[4,3-b][1,4]oxazine-6-carbonyl]piperidin-4-yl]-2-[2-chloro-5-(trifluoromethyl)phenyl]-N-methylacetamide] |  | 1140
8 | CC1(C#Cc2ccc(F)cc2Cl)CCN(C(=O)N2CC[C@@H]3OCC(=O)N[C@@H]3C2)CC1 [Example 197, (4aR,8aS)-6-(4-((2-Chloro-4-fluorophenyl)ethynyl)-4-methylpiperidine-1-carbonyl)hexahydro-2H-pyrido[4,3-b][1,4]oxazin-3(4H)-one] |  | 230
9 | O=C1CO[C@H]2CCN(C(=O)N3CC(CNC(c4cccc(C(F)(F)F)c4)C(F)(F)F)C3)C[C@H]2N1 (stereo partly drawn) [Example 68, (4aR,8aS)-6-(3-(((2,2,2-Trifluoro-1-(3-(trifluoromethyl)phenyl)ethyl)amino)methyl)azetidine-1-carbonyl)hexahydro-2H-pyrido[4,3-b][1,4]oxazin-3(4H)-one] |  | 18

Other lines, results leading:

Row | IC50 [1] [nM] | IC50 (MAGL) [nM] | SMILES
10 |  | 82 | O=C1CO[C@H]2CCN(C(=O)N3CCC(C#Cc4ccc(Cl)cc4)CC3)C[C@H]2N1 [Example 130, (+)-(4aR,8aS)-6-[4-[2-(4-Chlorophenyl)ethynyl]piperidine-1-carbonyl]-4,4a,5,7,8,8a-hexahydropyrido[4,3-b][1,4]oxazin-3-one]
11 |  | 5 | O=C1CO[C@H]2CCN(C(=O)N3CC(C#Cc4ccc(Cl)cc4Cl)C3)C[C@H]2N1 [Example 134, (+)-(4aR,8aS)-6-(3-((2,4-Dichlorophenyl)ethynyl)azetidine-1-carbonyl)hexahydro-2H-pyrido[4,3-b][1,4]oxazin-3(4H)-one]
12 |  | 5620 | O=C1CO[C@H]2CCN(C(=O)N3CC([S+]([O-])c4ccc(C(F)(F)F)cc4Cl)C3)C[C@H]2N1 (mixture of isomers) [Example 145, (4aR,8aS)-6-[3-[2-Chloro-4-(trifluoromethyl)phenyl]sulfinylazetidine-1-carbonyl]-4,4a,5,7,8,8a-hexahydropyrido[4,3-b][1,4]oxazin-3-one]
13 |  | 107 | O=C1CO[C@H]2CCN(C(=O)N3CC(C#CC4=CCCC4)C3)C[C@H]2N1 [Example 199, (4aR,8aS)-6-[3-[2-(Cyclopenten-1-yl)ethynyl]azetidine-1-carbonyl]-4,4a,5,7,8,8a-hexahydropyrido[4,3-b][1,4]oxazin-3-one]
14 |  | 2 | O=C1CO[C@H]2CCN(C(=O)N3CC(C#Cc4ccc(C(F)(F)F)cc4Cl)C3)C[C@H]2N1 [Example 200, (4aR,8aS)-6-(3-((2-Chloro-4-(trifluoromethyl)phenyl)ethynyl)azetidine-1-carbonyl)hexahydro-2H-pyrido[4,3-b][1,4]oxazin-3(4H)-one]
15 |  | 34 | O=C1CO[C@H]2CCN(C(=O)N3CC(C#Cc4c(F)cccc4F)C3)C[C@H]2N1 [Example 159, (4aR,8aS)-6-(3-((2,6-Difluorophenyl)ethynyl)azetidine-1-carbonyl)hexahydro-2H-pyrido[4,3-b][1,4]oxazin-3(4H)-one]

Reference: patent publication US20210277020A1, “HETEROCYCLIC COMPOUNDS AS MONOACYLGLYCEROL LIPASE INHIBITORS” (Hoffmann-La Roche Inc., priority 2018, published 2021)
